# Legend:
# iBMDM = test: IL-1β secretion from iBMDM (ELISA); type: cell-based, mouse
# Protocol: RAW 264.7 macrophages (ATCC, VA, USA) were seeded in a 96 well plate at a density of 20,000 cells per well. Cells were incubated with 10 ng/mL R848 (Sigma, MO, USA) and/or 20 ng/mL ICG (Sigma, MO, USA) for 24 h. Ultrasound irradiation (frequency: 1 MHz; duty cycle: 50%; power: 2 W/cm^2) was applied to these cells for up to 5 min. TNFα secretion was analyzed by mouse TNFα DuoSet ELISA (R&D Systems, MN, USA) following the manufacturer's instructions. To measure IL-1β secretion, immortal bone marrow derived macrophages or iBMDM (BCH, MA, USA)) were seeded in a 96 well plate at a density of 20,000 cells per well. Cells were incubated with 10 ng/mL PAPC (Avanti, AL, USA) and/or 20 ng/mL ICG for 24 h. Ultrasound irradiation (frequency: 1 MHz; duty cycle: 50%; power: 2 W/cm^2) was applied to these cells for up to 5 min. IL-1β secretion was analyzed by mouse IL-1β ELISA (Invitrogen, CA, USA) following the manufacturer's instructions. In some experiments, cells were also treated with 0.5, 1, or 2 mM of ROS scavenger N-acetyl-cysteine (Sigma, MO, USA) right before treatment with ultrasound.
# RAW 264.7 macrophages = test: TNFα secretion from RAW 264.7 macrophages (ELISA); type: cell-based, mouse; conditions: RAW264.7 macrophages; compared with no treatment control
# Protocol: RAW 264.7 macrophages (ATCC, VA, USA) were seeded in a 96 well plate at a density of 20,000 cells per well. Cells were incubated with 10 ng/mL R848 (Sigma, MO, USA) and/or 20 ng/mL ICG (Sigma, MO, USA) for 24 h. Ultrasound irradiation (frequency: 1 MHz; duty cycle: 50%; power: 2 W/cm^2) was applied to these cells for up to 5 min. TNFα secretion was analyzed by mouse TNFα DuoSet ELISA (R&D Systems, MN, USA) following the manufacturer's instructions. […] In some experiments, cells were also treated with 0.5, 1, or 2 mM of ROS scavenger N-acetyl-cysteine (Sigma, MO, USA) right before treatment with ultrasound.
# CT26 = test: Transwell co-culture assay, viability of CT26 tumor cells cocultured with RAW 264.7 macrophages (XTT); type: cell-based; conditions: single component or component removed
# Protocol: RAW 264.7 macrophages were seeded in a Transwell insert at a density of 200,000 cells per insert (Corning, N.Y., USA) and CT26 (ATCC, VA, USA) were seeded in the lower compartment at a density of 200,000 cells per well, which was separated by a porous membrane (well area: 0.3 cm^2, insert size: 6.5 mm). Cells were incubated with […] and/or 20 ng/mL ICG for 24 h. Ultrasound irradiation (frequency: 1 MHz; duty cycle: 50%; power: 2 W/cm^2) was performed for 5 min. The viability of tumor cells after treatment with different formulations in the absence or presence of ultrasound was determined by XTT Cell Proliferation Assay Kit (ATCC, VA, USA) following the manufacturer's instructions.
# [1] = Pharmacokinetic study after intravenous injection; type: in vivo; conditions: C57BL/6 mice
# Protocol: C57BL/6 mice were intravenously injected with free ICG or lipo-ICG (liposome encapsulated ICG). At predetermined time points (0.25, 1, 3, 7, and 24 h post injection), 50 ul blood were collected in Microvette 500 Z-gel tubes by submandibular bleeding and kept on ice. The samples were centrifuged at 10,000 g for 5 min at room temperature, and 10 ul of the serum were diluted to 100 ul with PBS and the fluorescence intensity was measured at Ex=780, Em=810 nm.
# [2] = Loading efficiency in liposomes; type: physicochemical; conditions: sonosensitizer incubated with preformed liposomes at room temperature
# Protocol: The lipid suspension was extruded through the 100 nm polycarbonate membrane using the extruder (Avanti, AL, USA) to obtain blank liposomes. Ethanol was removed by dialysis overnight at 4° C. To load the sonosensitizer in liposomes, ICG was firstly conjugated to a lipid tail such as DOPE before incubation with preformed blank liposomes at room temperature for 30 min. Unloaded ICG was removed by using the PD-10 column (GE Healthcare). To load PAPC (Avanti, AL, USA) in liposomes, the proper amount of PAPC in DMSO stock solution was incubated with liposomes containing ICG at room temperature for 30 min and the obtained formulation was used without further purification. To load R848 (Sigma, MO, USA) in liposomes, blank liposomes were firstly prepared in 250 mM ammonium sulfate, and the external ammonium sulfate was exchanged to 10% sucrose by dialysis overnight at 4° C., followed by incubation with R848 at 55° C. for 30 min and removal of unloaded R848 by dialysis overnight at 4° C. To measure the size of liposomes, 10 ul of liposomes were diluted to 2 mL with PBS and the size was measured with Zeta sizer. To measure the amount of ICG, 10 ul liposomes were added with 190 ul DMSO and the fluorescence was measured at Ex=780 nm, Em=810 nm.
Structure (SMILES),IL-1β release (iBMDM),TNFα release (RAW 264.7 macrophages),CT26 cell viability (CT26),detectability of ICG in serum after injection [1],loading efficiency [2],IL-1β release on ROS depletion (iBMDM; ROS scavenger added to PAPC+ICG+US)
"CCCCC/C=C\C/C=C\C/C=C\C/C=C\CCCC(=O)O[C@H](COC(=O)CCCCCCCCCCCCCCC)COP(=O)([O-])OCC[N+](C)(C)C [PAPC, 1-palmitoyl-2-arachidonoyl-sn-glycero-3-phosphocholine]",didn't induce any detectable level of IL-1β,–,–,–,–,–
"CC1(C)C(/C=C/C=C/C=C/C=C2\N(CCCCS(=O)(=O)O)c3ccc4ccccc4c3C2(C)C)=[N+](CCCCS(=O)(=O)[O-])c2ccc3ccccc3c21 [ICG, indocyanine green]",didn't induce any detectable level of IL-1β,didn't induce significant TNFα release,modest decrease of CT26 cell viability,not detectable within a few minutes after injection,less than 20%,–
"CC(=O)N[C@@H](CS)C(=O)O [NAC, N-acetyl-cysteine]",–,–,–,–,–,dose dependent reduction of IL-1β

# From patent publication US20220175926A1, “TARGETED SYNERGISTIC CANCER IMMUNOTHERAPY” (The Brigham and Women's Hospital, Inc., priority 2019, published 2022)
